This note sets out measurements from PMC6277577, “In Salmonella enterica, OatA (Formerly YjgM) Uses O-Acetyl-Serine and Acetyl-CoA to Synthesize N,O-Diacetylserine, Which Upregulates Cysteine Biosynthesis” (Frontiers in Microbiology, 2018).

Data set [1] deals with T1, OatA (formerly YjgM) (Salmonella enterica, UniProt Q08021).
T1 sequence (Q08021 1-167): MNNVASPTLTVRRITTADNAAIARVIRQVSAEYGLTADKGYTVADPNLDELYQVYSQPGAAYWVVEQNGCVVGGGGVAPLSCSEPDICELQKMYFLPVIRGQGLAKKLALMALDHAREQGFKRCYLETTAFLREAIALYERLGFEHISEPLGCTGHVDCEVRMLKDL
In words: isothermal titration calorimetry with purified OatA. It counts as binding.

Substrate in data set [2]: CC(=O)OC[C@H](N)C(=O)O
Nature of the data set: purified protein. Format: biochemical, Salmonella enterica. Conditions: acetyl-CoA positively cooperative (h = […]); no OAS binding seen by ITC under conditions tested, suggesting AcCoA binds before OAS.

A word on the Kd: it is a measure of binding affinity in units of concentration. In data set [1], `CC(=O)SCCNC(=O)CCNC(=O)[C@H](O)C(C)(C)COP(=O)(O)OP(=O)(O)OC[C@H]1O[C@@H](n2cnc3c(N)ncnc32)[C@H](O)[C@@H]1OP(=O)(O)O` [acetyl-CoA] displayed a Kd of around 22 µM.

B1: OatA (formerly YjgM) (Salmonella enterica subsp. enterica serovar Typhimurium str. LT2) (protein)
chain: T1 sequence (Q08021 1-167)
As a reminder, the Km is the substrate concentration at which the rate is half of its maximum. For the molecule B1, in data set [2], the Km stood at 740 µM.
